The test system of this assay is male spontaneous hypertensive rats (SHR). The assay is described as follows: Immediate effect on blood pressure in SHR, 1 hour after oral administration, tail artery systolic blood pressure. Type of assay: in vivo, rat. As to conditions: Example 6, organic acid, SHR aged 15 weeks, mean ± standard error. As to the method:
The blood pressure of each of male spontaneous hypertensive rats (SHR) was preliminarily continuously measured for 7 days by means of a commercially available non-invasive sphygmomanometer (manufactured by Softlon Co.), thereby fully accustoming the rats to the sphygmomanometry, and an evaluation test was then started. All the rats were bred (in a breeding chamber in a rat zone) under conditions of a temperature of 25±1° C., a relative humidity of 55±10% and a lighting time of 12 hours (from 7 a.m. to 7 p.m.).
The thus-obtained test results were expressed by a mean and standard error to conduct a Student's t-test. A level of significance was defined as at most 5%.
Six rats aged 15 weeks at the time the administration test was started were used in each group. The systolic blood pressure of a tail artery of each rat was measured after 1 hour from the beginning of the administration.
In Control Group, water was orally administered. In Comparative Group 1, a 0.2% aqueous solution of ferulic acid was orally administered. […]
Six rats aged 15 weeks at the time the administration test was started were used in each group. The systolic blood pressure of a tail artery of each rat was measured after 1 hour from the beginning of oral administration. […]
In Control Group, a 1% aqueous solution of sugar was orally administered. […] The dose was determined to be 15 mL/kg.

Structures are written as SMILES.

For the compound `COc1cc(/C=C/C(=O)O)ccc1O` [Comp. Group 2, ferulic acid], the “Systolic blood pressures, Before administration” value (n=6, baseline) worked out at 208.0 ± 4.1 mmHg. For the same compound, the “Systolic blood pressures, After 1 hour from administration” value (n=6, oral aqueous solution) turned out to be 179.7 ± 4.4 mmHg.

For the origin of these results see patent US6991812B2, “Agent for preventing, improving or treating hypertension” (Kao Corporation, priority 2000, dated 2006).
